Assay results reported in patent EP4273147A1, “SUBSTITUTED SPIROLACTAMS, SALTS THEREOF AND THEIR USE AS HERBICIDALLY ACTIVE SUBSTANCES” (Bayer Aktiengesellschaft, priority 2022, dated 2023).
Each block holds one compound with its values, some of them ahead of it.

Experiments:
[1] = test system: POAAN; test: Herbicidal post-emergence action (Table B7); format: in vivo, Poa annua
Procedure, shortened: (§1)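 Greenhouse pot assay, sandy loam soil, one weed species per pot. Application at one-leaf stage. Readout ~3 wk post-treatment: visual % activity, 100 = dead, 0 = as untreated.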

[2] = test system: LOLRI; test: Herbicidal pre-emergence action (Table A3); format: in vivo, Lolium rigidum; settings: visual grading after ca. 3 weeks
Procedure, shortened: (§2)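 Double sowing per pot (1 monocot + 1 dicot weed species), sandy loam substrate, seeds covered with soil.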

[3] = test system: ECHCG; test: Herbicidal pre-emergence action (Table A2); format: in vivo, Echinochloa crus-galli; settings: application rate 320 g/ha; visual grading after ca. 3 weeks
Procedure, shortened: as §2

[4] = test system: SETVI; test: Herbicidal pre-emergence action (Table A5); format: in vivo, Setaria viridis; settings: application rate 320 g/ha; visual grading after ca. 3 weeks
Procedure, shortened: as §2

[5] = test system: ALOMY; test: Herbicidal post-emergence action (Table B2); format: in vivo, Alopecurus myosuroides; settings: application rate 1280 g/ha; rated visually after about 3 weeks
Experimental: (§3) Seeds of mono- and dicotyledonous weed plants were placed in plastic pots in sandy loam soil (doubly sown with in each case one species of mono- or dicotyledonous weed plants per pot), covered with soil and cultivated in a greenhouse under controlled growth conditions. 2 to 3 weeks after sowing, the test plants were treated at the one-leaf stage. […] After the test plants had been kept in the greenhouse under optimum growth conditions for about 3 weeks, the activity of the preparations was rated visually in comparison to untreated controls. For example, 100% activity = the plants have died, 0% activity = like control plants.

[6] = test system: VERPE; test: Herbicidal post-emergence action (Table B10); format: in vivo, Veronica persica
Procedure, shortened: as §1

[7] = test system: POAAN; test: Herbicidal pre-emergence action (Table A7); format: in vivo, Poa annua; settings: application rate 320 g/ha; visual grading after ca. 3 weeks
Procedure, shortened: as §2

[8] = test system: ECHCG; test: Herbicidal post-emergence action (Table B3); format: in vivo, Echinochloa crus-galli; settings: application rate 1280 g/ha; rated visually after about 3 weeks
Procedure, shortened: as §1

[9] = test system: ALOMY; test: Herbicidal post-emergence action, section E (Table E2); format: in vivo, Alopecurus myosuroides; settings: application rate 320 g/ha; assessed visually after ca. 3 weeks
Description: (§4) 2 to 3 weeks after sowing, the test plants were sprayed in the single-leaf stage.

[10] = test system: ABUTH; test: Herbicidal pre-emergence action (Table A1); format: in vivo, Abutilon theophrasti; settings: application rate 1280 g/ha; visual grading after ca. 3 weeks vs untreated controls (100% = plants have died off, 0% = as control plants)
Procedure, shortened: as §2

[11] = test system: LOLRI; test: Herbicidal pre-emergence action, section C (Table C7); format: in vivo, Lolium rigidum; settings: application rate 320 g/ha; visual grading after ca. 3 weeks
[12] = test system: ORYZA; test: Pre-emergence effects on crop plants (Table D3); settings: crop plant; application rate 320 g/ha; visual grading after ca. 3 weeks
[13] = test system: MATIN; test: Herbicidal pre-emergence action (Table A4); format: in vivo, Matricaria inodora; settings: application rate 1280 g/ha; visual grading after ca. 3 weeks
Procedure, shortened: as §2

[14] = test system: STEME; test: Herbicidal pre-emergence action (Table A6); format: in vivo, Stellaria media; settings: application rate 320 g/ha; visual grading after ca. 3 weeks
Procedure, shortened: as §2

[15] = test system: ORYZA; test: Post-emergence effects on crop plants (Table F3); format: in vivo, Oryza sativa; settings: application rate 320 g/ha, crop plant ORYZA
Description: as §4

[16] = test system: BRSNW; test: Pre-emergence effects on crop plants (Table D5); format: in vivo, Brassica napus; settings: crop plant; application rate 320 g/ha; visual grading after ca. 3 weeks
[17] = test system: TRZAS; test: Pre-emergence effects on crop plants (Table D2); format: in vivo, Triticum aestivum; settings: crop plant; application rate 80 g/ha; visual grading after ca. 3 weeks
[18] = test system: ZEAMX; test: Pre-emergence effects on crop plants (Table D1); format: in vivo, Zea mays; settings: crop plant; application rate 80 g/ha; visual grading after ca. 3 weeks
[19] = test system: VERPE; test: Herbicidal pre-emergence action, section C (Table C11); format: in vivo, Veronica persica; settings: application rate 320 g/ha; visual grading after ca. 3 weeks
[20] = test system: VIOTR; test: Herbicidal pre-emergence action, section C (Table C12); format: in vivo, Viola tricolor; settings: application rate 320 g/ha; visual grading after ca. 3 weeks
[21] = test system: GLXMA; test: Post-emergence effects on crop plants (Table F4); format: in vivo, Glycine max; settings: application rate 80 g/ha, crop plant GLXMA
Description: as §4

[22] = test system: MATIN; test: Herbicidal post-emergence action (Table B6); format: in vivo, Matricaria inodora; settings: application rate 1280 g/ha; rated visually after about 3 weeks
Experimental: as §3

[23] = test system: ECHCG; test: Herbicidal pre-emergence action, section C (Table C6); format: in vivo, Echinochloa crus-galli; settings: application rate 80 g/ha; visual grading after ca. 3 weeks
[24] = test system: BRSNW; test: Post-emergence effects on crop plants (Table F5); format: in vivo, Brassica napus; settings: application rate 320 g/ha, crop plant BRSNW
Description: as §4

[25] = test system: ALOMY; test: Herbicidal pre-emergence action, section C (Table C2); format: in vivo, Alopecurus myosuroides; settings: application rate 80 g/ha; visual grading after ca. 3 weeks
[26] = test system: SETVI; test: Herbicidal pre-emergence action, section C (Table C10); format: in vivo, Setaria viridis; settings: application rate 320 g/ha; visual grading after ca. 3 weeks
[27] = test system: TRZAS; test: Post-emergence effects on crop plants (Table F2); format: in vivo, Triticum aestivum; settings: application rate 80 g/ha, crop plant TRZAS
Description: as §4

[28] = test system: ZEAMX; test: Post-emergence effects on crop plants (Table F1); format: in vivo, Zea mays; settings: application rate 320 g/ha, crop plant ZEAMX
Description: as §4

SMILES: O=C1N(Cc2ccccc2F)CCCC12CCCN(Cc1ccccc1Br)C2=O (racemic) [I-042]
post-emergence activity against POAAN ([1]; application rate 1280 g/ha): 90%
pre-emergence activity against LOLRI ([2]; application rate 1280 g/ha): 100%
pre-emergence activity against ECHCG [3]: 100%
pre-emergence activity against SETVI [4]: 90%
post-emergence activity against ALOMY [5]: 90%
post-emergence activity against VERPE ([6]; application rate 1280 g/ha): 90%
pre-emergence activity against POAAN [7]: 100%

SMILES: O=C1N(Cc2ccccc2Br)CCCC12CCCN(Cc1cccc(F)c1F)C2=O (racemic) [I-055]
post-emergence activity against ECHCG [8]: 90%
pre-emergence activity against LOLRI ([2]; application rate 320 g/ha): 100%
pre-emergence activity against ECHCG [3]: 100%
pre-emergence activity against SETVI [4]: 90%
post-emergence activity against ALOMY [5]: 90%
post-emergence activity against VERPE ([6]; application rate 320 g/ha): 90%

pre-emergence activity against ORYZA [12]: 10%
pre-emergence activity against BRSNW [16]: 0%
pre-emergence activity against TRZAS [17]: 20%
pre-emergence activity against ZEAMX [18]: 20%
SMILES: O=C1N(Cc2cccc(F)c2F)CCCC12CCCN(Cc1cccc(F)c1F)C2=O (racemic) [I-012]
post-emergence activity against ALOMY [9]: 80%
pre-emergence activity against ABUTH [10]: 90%
pre-emergence activity against LOLRI [11]: 100%
pre-emergence activity against MATIN [13]: 90%
post-emergence activity against POAAN ([1]; application rate 320 g/ha): 100%
pre-emergence activity against STEME [14]: 90%
post-emergence activity against ORYZA [15]: 10%
pre-emergence activity against LOLRI ([2]; application rate 1280 g/ha): 100%
pre-emergence activity against ECHCG [3]: 100%
pre-emergence activity against SETVI [4]: 100%
pre-emergence activity against VERPE [19]: 80%
pre-emergence activity against VIOTR [20]: 80%
post-emergence activity against GLXMA [21]: 0%
post-emergence activity against MATIN [22]: 90%
pre-emergence activity against ECHCG [23]: 100%
post-emergence activity against BRSNW [24]: 20%
pre-emergence activity against ALOMY [25]: 90%
pre-emergence activity against POAAN [7]: 100%
pre-emergence activity against SETVI [26]: 100%
post-emergence activity against TRZAS [27]: 0%
post-emergence activity against ZEAMX [28]: 0%
